Test results: the NIST ThermoML archive (doi:10.1016/j.fluid.2014.01.041)
± gives the expanded uncertainty stated by the source.

conditions: Crystal; DTA

First: CC(=O)CCCCn1c(=O)c2c(ncn2C)n(C)c1=O [3,7-dimethyl-1-(5-oxohexyl)-3,7-dihydro-1H-purine-2,6-dione]
Second: NC(=O)CN1CCCC1=O [2-oxo-1-pyrrolidineacetamide]
The Normal melting temperature of the first is lower: 106 ± 0.4 °C for the first, 125 ± 0.4 °C for the second.

With `C(=C\c1ccccc1)/CN1CCN(C(c2ccccc2)c2ccccc2)CC1` [cinnarizine] the Normal melting temperature was 122.0 ± 0.4 °C.
